The values below come from patent US7449465B2, “Triazolopyrimidine derivatives as glycogen synthase kinase 3 inhibitors” (Janssen Pharmaceutica, N.V., priority 2003, dated 2008).

Bounds are passed on as bounds.

In one test the target is GSK3alpha (Homo sapiens, UniProt P49840). Put plainly: GSK3alpha assay (same as the GSK3beta assay, 0.25 ng/μl GSK3alpha). Format: biochemical. Particulars: ranges of pIC50 (−log IC50 (M)), 1 μM ATP, read-out: GSK3a pIC50 (converted). The method, then: (§1) GSK3beta assays were performed at room temperature in a 100 μl reaction volume of 25 mM Tris (pH 7.4) containing 10 mM MgCl2.6H2O, 1 mM DTI, 0.1 mgiml BSA, 5% glycerol and containing 5.7 ng/μl GSK3β, 5 μM biotinylated phosphorylated CREB peptide, 1 μM ATP, 0.85 μCi/ml ATP-P^33 and a suitable amount of a test compound of formula (I). After one hour, the reaction was terminated by adding 70 μl of Stop mix (0.1 mM ATP, 5 mg/ml streptavidin coated PVT SPA bead pH 11.0). The beads to which the phosphorylated CREB peptide is attached were allowed to settle overnight and the radioactivity of the beads was counted in a microtiterplate scintillation counter and compared with the results obtained in a control experiment (without the presence of a test compound) in order to determine the percentage of GSK3β inhibition. The IC50 value, i.e. the concentration (M) of the test compound at which 50% of GSK3β is inhibited, was calculated from the dose response curve obtained by performing the above-described GSK3β assay in the presence of different amounts of the test compound.
Chain of GSK3alpha (P49840 whole entry, species assumed): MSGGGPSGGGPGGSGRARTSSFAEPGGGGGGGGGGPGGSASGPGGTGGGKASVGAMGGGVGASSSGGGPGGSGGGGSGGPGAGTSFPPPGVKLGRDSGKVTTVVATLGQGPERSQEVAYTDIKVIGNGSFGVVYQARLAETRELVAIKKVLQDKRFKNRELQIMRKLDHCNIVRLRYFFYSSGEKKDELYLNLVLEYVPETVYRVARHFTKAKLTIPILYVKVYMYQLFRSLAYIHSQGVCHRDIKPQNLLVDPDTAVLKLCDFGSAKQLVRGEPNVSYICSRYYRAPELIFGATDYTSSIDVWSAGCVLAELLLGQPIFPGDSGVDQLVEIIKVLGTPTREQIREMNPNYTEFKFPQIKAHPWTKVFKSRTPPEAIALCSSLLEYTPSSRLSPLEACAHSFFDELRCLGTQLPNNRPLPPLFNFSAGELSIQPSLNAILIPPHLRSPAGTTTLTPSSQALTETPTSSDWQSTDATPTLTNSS
The GSK3alpha assay was performed in the same way as described above for the GSK3beta assay except for the concentration of GSK3alpha which is 0.25 ng/μl.
Regarding `COCc1cccc(-n2nnc3cnc(Nc4ccc(OCCN5CCN(C)CC5)cc4)nc32)c1` [Compound 105], the IC50 was 1e-08 to 1e-07 M.

On to `Fc1cccc(-n2nnc3cnc(Nc4ccc(OCCCN5CCOCC5)cc4)nc32)c1` [Compound 144], for which the IC50 was under 1e-08 M.

Regarding `COCCOc1cccc(-n2nnc3cnc(Nc4ccc(CN5CCN(C)CC5)cc4)nc32)c1` [Compound 131], the IC50 was 1e-08 to 1e-07 M.

Turning to `COCc1cccc(-n2nnc3cnc(Nc4ccc(C(=O)NCCN5CCOCC5)cc4)nc32)c1` [Compound 104], the IC50 was under 1e-08 M.

With `COc1cccc(-n2nnc3cnc(Nc4cccc(-c5nnn(C)n5)c4)nc32)c1` [Compound 18], the IC50 is under 1e-08 M.

In the case of `Cn1cnnc1-c1cccc(Nc2ncc3nnn(-c4cccc(F)c4)c3n2)c1` [Compound 26], the IC50 is under 1e-08 M.

Regarding `CN1CCN(CCCOc2ccc(Nc3ncc4nnn(-c5cccc(F)c5)c4n3)cc2)CC1` [Compound 143], the IC50 was under 1e-08 M.

Turning to `Fc1cccc(-n2nnc3cnc(Nc4cccc(-c5nnn[nH]5)c4)nc32)c1` [Compound 27], the IC50 was under 1e-08 M.

For `COCCOCc1cccc(-n2nnc3cnc(Nc4ccc(C(=O)NCCN5CCOCC5)cc4)nc32)c1` [Compound 112], the IC50 is under 1e-08 M.

For the compound `Cn1nnnc1-c1cccc(Nc2ncc3nnn(-c4cccc(S(N)(=O)=O)c4)c3n2)c1` [Compound 146], the IC50 was under 1e-08 M.

Turning to `COCCOc1cccc(-n2nnc3cnc(Nc4ccc(C(=O)N5CCN(C)CC5)cc4)nc32)c1` [Compound 133], the IC50 is under 1e-08 M.

Turning to `O=C(NCCN1CCOCC1)c1ccc(Nc2ncc3nnn(-c4cccc(CCO)c4)c3n2)cc1` [Compound 81], the IC50 was under 1e-08 M.

On to `c1ccc(-n2nnc3cnc(Nc4ccc(N5CCOCC5)cc4)nc32)cc1` [Compound 11], for which the IC50 was 1e-08 to 1e-07 M.

As to `COCc1cccc(-n2nnc3cnc(Nc4cccc(-c5cnco5)c4)nc32)c1` [Compound 98], the IC50 is under 1e-08 M.

`Fc1cccc(-n2nnc3cnc(Nc4cccc(-c5ncc[nH]5)c4)nc32)c1` [Compound 149]: the IC50 was under 1e-08 M.

For the compound `CNc1nccc(-c2cccc(Nc3ncc4nnn(-c5cccc(F)c5)c4n3)c2)n1` [Compound 34], the IC50 was under 1e-08 M.

For the compound `COCCOCc1cccc(-n2nnc3cnc(Nc4ccc(C(=O)N5CCN(C)CC5)cc4)nc32)c1` [Compound 111], the IC50 was under 1e-08 M.

As for `Brc1cccc(-n2nnc3cnc(Nc4ccc(-c5nnn[nH]5)cc4)nc32)c1` [Compound 52], the IC50 is under 1e-08 M.

Take `O=S(=O)(NCCNc1ncccn1)c1cccc(Nc2ncc3nnn(-c4cccc(F)c4)c3n2)c1` [Compound 136]: the IC50 is 1e-08 to 1e-07 M.

Regarding `NC(=O)Cc1cccc(-n2nnc3cnc(Nc4cccc(-c5cnco5)c4)nc32)c1` [Compound 95], the IC50 is under 1e-08 M.

In the case of `N#CCc1cccc(-n2nnc3cnc(Nc4ccc(C(=O)NCCN5CCOCC5)cc4)nc32)c1` [Compound 92], the IC50 is under 1e-08 M.

`O=c1[nH]nc(-c2cccc(Nc3ncc4nnn(-c5cccc(Br)c5)c4n3)c2)[nH]1` [Compound 46]: the IC50 is under 1e-08 M.

For the compound `COc1cccc(-n2nnc3cnc(Nc4cccc(-c5nnn[nH]5)c4)nc32)c1` [Compound 127], the IC50 was under 1e-08 M.

The target of the next test is GSK3β (Homo sapiens, UniProt P49841). Put plainly: GSK3beta assay (SPA, biotinylated phosphorylated CREB peptide, ATP-P33). Particulars: ranges of pIC50 (−log IC50 (M)); 1 μM ATP, room temperature, one hour; read-out: GSK3b pIC50 (converted). Format: biochemical. The method, then: as §1
Chain of GSK3β (P49841 whole entry, species assumed): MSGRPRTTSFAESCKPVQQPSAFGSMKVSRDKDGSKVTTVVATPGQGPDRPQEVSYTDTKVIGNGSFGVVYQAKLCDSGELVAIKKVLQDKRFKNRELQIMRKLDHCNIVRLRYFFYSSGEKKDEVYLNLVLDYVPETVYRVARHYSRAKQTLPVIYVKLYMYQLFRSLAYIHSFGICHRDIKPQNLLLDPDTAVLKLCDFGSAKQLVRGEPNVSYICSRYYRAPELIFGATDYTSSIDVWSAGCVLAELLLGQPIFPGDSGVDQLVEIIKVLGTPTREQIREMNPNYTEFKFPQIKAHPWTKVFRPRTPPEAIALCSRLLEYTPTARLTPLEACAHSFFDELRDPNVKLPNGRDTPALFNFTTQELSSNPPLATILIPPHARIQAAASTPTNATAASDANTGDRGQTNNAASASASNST
Turning to `COCc1cccc(-n2nnc3cnc(Nc4ccc(OCCN5CCN(C)CC5)cc4)nc32)c1` [Compound 105], the IC50 was 1e-08 to 1e-07 M.

Take `Fc1cccc(-n2nnc3cnc(Nc4ccc(OCCCN5CCOCC5)cc4)nc32)c1` [Compound 144]: the IC50 is 1e-08 to 1e-07 M.

Turning to `COCCOc1cccc(-n2nnc3cnc(Nc4ccc(CN5CCN(C)CC5)cc4)nc32)c1` [Compound 131], the IC50 was 1e-08 to 1e-07 M.

Regarding `COCc1cccc(-n2nnc3cnc(Nc4ccc(C(=O)NCCN5CCOCC5)cc4)nc32)c1` [Compound 104], the IC50 is under 1e-08 M.

In the case of `COc1cccc(-n2nnc3cnc(Nc4cccc(-c5nnn(C)n5)c4)nc32)c1` [Compound 18], the IC50 is under 1e-08 M.

On to `Cn1cnnc1-c1cccc(Nc2ncc3nnn(-c4cccc(F)c4)c3n2)c1` [Compound 26], for which the IC50 is under 1e-08 M.

Take `CN1CCN(CCCOc2ccc(Nc3ncc4nnn(-c5cccc(F)c5)c4n3)cc2)CC1` [Compound 143]: the IC50 was 1e-08 to 1e-07 M.

For `Fc1cccc(-n2nnc3cnc(Nc4cccc(-c5nnn[nH]5)c4)nc32)c1` [Compound 27], the IC50 was under 1e-08 M.

On to `COCCOCc1cccc(-n2nnc3cnc(Nc4ccc(C(=O)NCCN5CCOCC5)cc4)nc32)c1` [Compound 112], for which the IC50 was under 1e-08 M.

In the case of `Cn1nnnc1-c1cccc(Nc2ncc3nnn(-c4cccc(S(N)(=O)=O)c4)c3n2)c1` [Compound 146], the IC50 was 1e-08 M.

For `COCCOc1cccc(-n2nnc3cnc(Nc4ccc(C(=O)N5CCN(C)CC5)cc4)nc32)c1` [Compound 133], the IC50 was 1e-08 to 1e-07 M.

`O=C(NCCN1CCOCC1)c1ccc(Nc2ncc3nnn(-c4cccc(CCO)c4)c3n2)cc1` [Compound 81]: the IC50 was under 1e-08 M.

For `c1ccc(-n2nnc3cnc(Nc4ccc(N5CCOCC5)cc4)nc32)cc1` [Compound 11], the IC50 is 1e-08 to 1e-07 M.

Take `COCc1cccc(-n2nnc3cnc(Nc4cccc(-c5cnco5)c4)nc32)c1` [Compound 98]: the IC50 was under 1e-08 M.

Turning to `Fc1cccc(-n2nnc3cnc(Nc4cccc(-c5ncc[nH]5)c4)nc32)c1` [Compound 149], the IC50 was under 1e-08 M.

In the case of `CNc1nccc(-c2cccc(Nc3ncc4nnn(-c5cccc(F)c5)c4n3)c2)n1` [Compound 34], the IC50 is under 1e-08 M.

In the case of `COCCOCc1cccc(-n2nnc3cnc(Nc4ccc(C(=O)N5CCN(C)CC5)cc4)nc32)c1` [Compound 111], the IC50 is under 1e-08 M.

For `Brc1cccc(-n2nnc3cnc(Nc4ccc(-c5nnn[nH]5)cc4)nc32)c1` [Compound 52], the IC50 was under 1e-08 M.

In the case of `O=S(=O)(NCCNc1ncccn1)c1cccc(Nc2ncc3nnn(-c4cccc(F)c4)c3n2)c1` [Compound 136], the IC50 was 1e-08 to 1e-07 M.

Take `NC(=O)Cc1cccc(-n2nnc3cnc(Nc4cccc(-c5cnco5)c4)nc32)c1` [Compound 95]: the IC50 was under 1e-08 M.

For the compound `N#CCc1cccc(-n2nnc3cnc(Nc4ccc(C(=O)NCCN5CCOCC5)cc4)nc32)c1` [Compound 92], the IC50 was under 1e-08 M.

On to `O=c1[nH]nc(-c2cccc(Nc3ncc4nnn(-c5cccc(Br)c5)c4n3)c2)[nH]1` [Compound 46], for which the IC50 was 1e-08 to 1e-07 M.

Turning to `COc1cccc(-n2nnc3cnc(Nc4cccc(-c5nnn[nH]5)c4)nc32)c1` [Compound 127], the IC50 is 1e-08 to 1e-07 M.
